# Paper PMC11079024, “Identification of a family of species-selective complex I inhibitors as potential anthelmintics” (Nature Communications, 2024)
# Read-outs that look alike come from different tables or passages of the source.
# Legend:
# [1] = target: C. elegans (N2) complex I (NADH:ubiquinone oxidoreductase) (Caenorhabditis elegans, UniProt P24887+Q93873+Q94360); assay: biochemical; type: biochemical
# In short: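 Compounds were tested against freeze-thawed isolated mitochondria (0.2 mg/mL protein). NADH:decylubiquinone activity was monitored via DCIP absorbance at 600 nm, and the initial linear slope was normalised to solvent controls.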
# L1 wild-type C. elegans [2] = assay: microbe, parasite or virus in culture; details: Caenorhabditis elegans, read-out: C. elegans KCN Survival Assay LC50, estimated from fitted dose-response curves; mean of at least two biological replicates
# L1 wild-type C. elegans [3] = system: L1 wild-type C. elegans
# Chain of C. elegans (N2) complex I (NADH:ubiquinone oxidoreductase) (Q94360 17-199): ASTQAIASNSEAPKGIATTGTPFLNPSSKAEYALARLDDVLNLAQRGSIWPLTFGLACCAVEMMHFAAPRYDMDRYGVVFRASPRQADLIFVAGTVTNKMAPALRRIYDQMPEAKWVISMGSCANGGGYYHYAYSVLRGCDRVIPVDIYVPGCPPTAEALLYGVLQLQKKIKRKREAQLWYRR
# Chain of C. elegans (N2) complex I (NADH:ubiquinone oxidoreductase) (P24887 whole entry): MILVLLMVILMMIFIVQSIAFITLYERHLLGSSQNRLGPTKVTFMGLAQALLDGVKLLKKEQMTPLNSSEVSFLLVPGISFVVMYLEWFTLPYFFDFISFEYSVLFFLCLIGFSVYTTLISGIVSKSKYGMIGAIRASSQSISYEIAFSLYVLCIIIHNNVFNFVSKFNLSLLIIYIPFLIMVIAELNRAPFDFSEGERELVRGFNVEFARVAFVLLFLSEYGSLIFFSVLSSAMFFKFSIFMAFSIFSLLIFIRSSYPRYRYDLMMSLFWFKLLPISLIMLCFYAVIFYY
# Chain of C. elegans (N2) complex I (NADH:ubiquinone oxidoreductase) (Q93873 31-482): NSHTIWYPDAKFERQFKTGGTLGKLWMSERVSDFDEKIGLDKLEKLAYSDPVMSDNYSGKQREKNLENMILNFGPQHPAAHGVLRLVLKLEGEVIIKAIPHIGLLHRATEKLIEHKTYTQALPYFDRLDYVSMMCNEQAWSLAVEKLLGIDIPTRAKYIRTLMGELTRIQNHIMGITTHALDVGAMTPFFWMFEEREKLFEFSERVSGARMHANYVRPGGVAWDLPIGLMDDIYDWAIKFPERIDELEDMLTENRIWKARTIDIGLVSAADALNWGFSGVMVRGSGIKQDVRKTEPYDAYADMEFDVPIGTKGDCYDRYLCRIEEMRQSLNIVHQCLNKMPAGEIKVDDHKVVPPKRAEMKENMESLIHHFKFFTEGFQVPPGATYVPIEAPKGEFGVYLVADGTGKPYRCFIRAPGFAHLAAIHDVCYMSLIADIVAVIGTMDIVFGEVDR
smiles,measurement,setting,value
Brc1ccccc1OCCCCn1cnc2ccccc21 [Compound 7924576],activity at 0.0001 µM,"[1]; Dose 0.0001 µM, read-out: C. elegans mitochondrial complex I activity",82.9%
same,activity at 0.0005 µM,"[1]; Dose 0.0005 µM, read-out: C. elegans mitochondrial complex I activity",89.9%
same,activity at 0.001 µM,"[1]; Dose 0.001 µM, read-out: C. elegans mitochondrial complex I activity",81.8%
same,activity at 0.0025 µM,"[1]; Dose 0.0025 µM, read-out: C. elegans mitochondrial complex I activity",93.2%
same,activity at 0.005 µM,"[1]; Dose 0.005 µM, read-out: C. elegans mitochondrial complex I activity",91.6%
same,activity at 0.013 µM,"[1]; Dose 0.013 µM, read-out: C. elegans mitochondrial complex I activity",87.2%
same,activity at 0.025 µM,"[1]; Dose 0.025 µM, read-out: C. elegans mitochondrial complex I activity",76%
same,activity at 0.063 µM,"[1]; Dose 0.063 µM, read-out: C. elegans mitochondrial complex I activity",73.6%
same,activity at 0.125 µM,"[1]; Dose 0.125 µM, read-out: C. elegans mitochondrial complex I activity",67.2%
same,activity at 0.313 µM,"[1]; Dose 0.313 µM, read-out: C. elegans mitochondrial complex I activity",52.4%
same,activity at 0.625 µM,"[1]; Dose 0.625 µM, read-out: C. elegans mitochondrial complex I activity",40.5%
same,activity at 1.5 µM,"[1]; Dose 1.5 µM, read-out: C. elegans mitochondrial complex I activity",21.3%
same,activity at 3 µM,"[1]; Dose 3 µM, read-out: C. elegans mitochondrial complex I activity",12.5%
same,activity at 15 µM,"[1]; Dose 15 µM, read-out: C. elegans mitochondrial complex I activity",10.2%
same,activity at 75 µM,"[1]; Dose 75 µM, read-out: C. elegans mitochondrial complex I activity",5.45%
same,Log IC50 C. elegans complex I,"[1]; log10 of IC50 in µM, C. elegans mitochondria",-0.37 µM
same,IC50,"[1]; wild-type C. elegans mitochondria, estimated from fitted dose-response curves, read-out: C. elegans Complex I IC50",0.43 µM
same,LC50,L1 wild-type C. elegans [2],6.73 µM
same,"Screen ""Hit""","L1 wild-type C. elegans [3]; 50 μM, […], KCN survival assay, hit = relative motility below 0.25",Y (hits were identified as compounds that reduced relative motility below 0.25 (75% reduction))
same,C. elegans KCN Survival,L1 wild-type C. elegans [3]; Dose 0.39 µM,0.969
same,C. elegans KCN Survival,L1 wild-type C. elegans [3]; Dose 1.56 µM,0.940
same,C. elegans KCN Survival,L1 wild-type C. elegans [3]; Dose 3.13 µM,0.862
same,C. elegans KCN Survival,L1 wild-type C. elegans [3]; Dose 6.25 µM,0.585
same,C. elegans KCN Survival,L1 wild-type C. elegans [3]; Dose 12.5 µM,0.135
same,C. elegans KCN Survival,L1 wild-type C. elegans [3]; Dose 25 µM,0.138
same,C. elegans KCN Survival,L1 wild-type C. elegans [3]; Dose 50 µM,0.159
same,C. elegans KCN Survival,L1 wild-type C. elegans [3]; Dose 100 µM,0.208
